Test systems include DU-145 prostate; SNB-19 CNS; U251 CNS; OVCAR-4 ovarian; SN12C renal; TK-10 renal; HCT-116 colon; UACC-62 melanoma; UO-31 renal; SK-MEL-28 melanoma.
What all share (assay): DTP human tumour cell line panel, 48 h

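Where inhibition never reached the appropriate level, the endpoint shown equals the highest concentration tested. Otherwise, values were interpolated linearly from a five-concentration, 48-hour dose response in 96-well plates. GI50: concentration for 50% inhibition of growth. Definition used: TGI = concentration required for complete inhibition of growth.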

Data on 8 compounds can be found in PubChem BioAssay (NCI).

For orientation: GI50 means the concentration that inhibits growth by half. What is called TGI is the concentration giving total growth inhibition. High values mean less potent growth arrest, low ones more potent growth arrest.

With `O=C(Nc1ccc(Cl)cc1F)c1cc(Cl)ccc1O`, the GI50 with DU-145 prostate is 0.915 µM; in the test on SNB-19 CNS, 0.413 µM; in the test with U251 CNS it was 0.466 µM; in the test with OVCAR-4 ovarian it was 0.34 µM; in the test with SN12C renal, 0.345 µM; in the test on TK-10 renal, 1.31 µM. Also, the GI50 in the test on HCT-116 colon was 0.431 µM; in the test with UACC-62 melanoma, 0.279 µM; in the test with UO-31 renal, 0.208 µM; in the test with SK-MEL-28 melanoma it was 0.364 µM. The TGI is above 42.8 µM with DU-145 prostate; above 100 µM with SNB-19 CNS; above 100 µM with U251 CNS; above 100 µM in the test on OVCAR-4 ovarian; 3.95 µM in the test on SN12C renal; above 31.2 µM in the test with TK-10 renal. The TGI in the test on HCT-116 colon turned out to be 2.24 µM; in the test with UACC-62 melanoma, 1.11 µM; in the test with UO-31 renal it was 1.92 µM; in the test with SK-MEL-28 melanoma it was 1.84 µM.

Consider `O=C1CCCCCCCCCCC1CN(Cc1ccccc1)Cc1ccccc1` (stereo not given), for which the TGI is above 100 µM with DU-145 prostate; above 100 µM in the test on SNB-19 CNS; 49.6 µM in the test on U251 CNS; above 100 µM in the test with OVCAR-4 ovarian; above 100 µM with SN12C renal; above 100 µM in the test with TK-10 renal. Moreover, the TGI in the test with HCT-116 colon was 55.9 µM; in the test on UACC-62 melanoma, 36.1 µM; in the test on UO-31 renal, above 100 µM; in the test with SK-MEL-28 melanoma it was above 100 µM.

In the case of `COc1ccc(CCN2COc3ccc4ccc(=O)oc4c3C2)cc1OC`, the TGI in the test with DU-145 prostate, in the test with SNB-19 CNS, in the test on U251 CNS, with OVCAR-4 ovarian, in the test on SN12C renal and in the test on TK-10 renal was above 100 µM in each case. Also, the TGI with HCT-116 colon, with UACC-62 melanoma, in the test with UO-31 renal and in the test with SK-MEL-28 melanoma was above 100 µM throughout.

Turning to `Cc1[nH]c2ccccc2c1C1=CC(=O)C=CC1=O`, the GI50 in the test on DU-145 prostate was 13.4 µM; in the test with SNB-19 CNS, 16.6 µM; in the test with U251 CNS it was 14.8 µM; with OVCAR-4 ovarian it was 4.2 µM; in the test on SN12C renal, 14.4 µM; in the test with TK-10 renal, 2.32 µM. Also, the GI50 in the test with HCT-116 colon was 10.5 µM; in the test with UACC-62 melanoma, 10.4 µM; in the test with UO-31 renal it was 10.5 µM; in the test on SK-MEL-28 melanoma it was 14.1 µM. Besides, the TGI in the test on DU-145 prostate is 26.8 µM; in the test on SNB-19 CNS, 41.6 µM; in the test with U251 CNS, 31.4 µM; with OVCAR-4 ovarian, 15.3 µM; in the test on SN12C renal, 32 µM; in the test with TK-10 renal, 5.85 µM. Moreover, the TGI is 24.8 µM in the test with HCT-116 colon, 23.4 µM in the test on UACC-62 melanoma, 23.2 µM in the test with UO-31 renal and 27.4 µM in the test on SK-MEL-28 melanoma.

With `CS(=O)(=O)c1ccc(-c2[nH]c3ccc(F)cc3c2/C=N/NC(N)=S)cc1`, the GI50 with DU-145 prostate was 2.24 µM; in the test on SNB-19 CNS it was 1.31 µM; in the test with U251 CNS, 0.777 µM; in the test with OVCAR-4 ovarian, 13.4 µM; with SN12C renal, 3.14 µM; with TK-10 renal it was 5.88 µM. Besides, the GI50 was 0.437 µM with HCT-116 colon, 0.531 µM with UACC-62 melanoma, 2.84 µM in the test with UO-31 renal and 12.3 µM in the test with SK-MEL-28 melanoma. Moreover, the TGI with DU-145 prostate, with SNB-19 CNS, in the test on U251 CNS, with OVCAR-4 ovarian, in the test on SN12C renal and with TK-10 renal was above 100 µM each time. Further, the concentration for total growth inhibition (TGI) in the test on HCT-116 colon, with UACC-62 melanoma, with UO-31 renal and with SK-MEL-28 melanoma was above 100 µM throughout.

For `Cc1nc2sc(C(=O)Nc3cccc(Cl)c3C)c(N)c2cc1C(=O)c1ccccc1`, the GI50 in the test with DU-145 prostate is 0.524 µM; in the test on SNB-19 CNS it was 0.222 µM; in the test with U251 CNS it was 0.219 µM; in the test on OVCAR-4 ovarian, 1.08 µM; with SN12C renal, 0.568 µM; in the test with TK-10 renal, 2.48 µM. Moreover, the GI50 is 0.22 µM in the test on HCT-116 colon, 0.246 µM in the test on UACC-62 melanoma, 0.408 µM in the test on UO-31 renal and 1.45 µM in the test on SK-MEL-28 melanoma. The TGI with DU-145 prostate, in the test on SNB-19 CNS, in the test on U251 CNS, with OVCAR-4 ovarian, in the test on SN12C renal and in the test with TK-10 renal was above 50 µM in each case. Further, the TGI in the test with HCT-116 colon, in the test with UACC-62 melanoma, with UO-31 renal and in the test on SK-MEL-28 melanoma was above 50 µM throughout.

`COc1ccc2c(c1)c(-c1nc(-c3cn(C)c4ncccc34)cs1)cn2CCCCN1CCOCC1`: the GI50 in the test on DU-145 prostate was 1.71 µM; with SNB-19 CNS it was 1.65 µM; in the test with U251 CNS it was 1.25 µM; in the test on OVCAR-4 ovarian, 1.71 µM; with SN12C renal, 3.28 µM; in the test with TK-10 renal it was 2.73 µM. For the same compound, the GI50 is 1.8 µM in the test with HCT-116 colon, 1.62 µM in the test with UACC-62 melanoma, 1.2 µM in the test with UO-31 renal and 1.5 µM in the test on SK-MEL-28 melanoma. The TGI in the test with DU-145 prostate worked out at 5.05 µM; with SNB-19 CNS it was 3.49 µM; in the test on U251 CNS it was 2.93 µM; in the test on OVCAR-4 ovarian, 4.94 µM; with SN12C renal, 9.22 µM; with TK-10 renal, 8.19 µM. Further, the TGI is 3.91 µM in the test with HCT-116 colon, 3.44 µM in the test with UACC-62 melanoma, 2.56 µM in the test on UO-31 renal and 2.97 µM with SK-MEL-28 melanoma.

Turning to `CC(C)NCCCCCNc1cc(O)cc2cccnc12`, the GI50 was above 100 µM in the test with DU-145 prostate; above 100 µM in the test with SNB-19 CNS; above 100 µM in the test with U251 CNS; 4.14 µM with OVCAR-4 ovarian; above 100 µM in the test on SN12C renal; above 100 µM with TK-10 renal. Further, the GI50 in the test on HCT-116 colon was 67.9 µM; with UACC-62 melanoma, above 100 µM; in the test with UO-31 renal, 85.2 µM; with SK-MEL-28 melanoma, above 100 µM. The TGI in the test on DU-145 prostate, in the test on SNB-19 CNS, with U251 CNS, in the test on OVCAR-4 ovarian, in the test on SN12C renal and with TK-10 renal was above 100 µM each time. The TGI in the test on HCT-116 colon, with UACC-62 melanoma, with UO-31 renal and with SK-MEL-28 melanoma was above 100 µM each time.
